Experimental data taken from patent US20110130380A1, “Heteroaryl Kinase Inhibitors” (priority 2009, published 2011).
pIC50: −log10 of the molar value.

Each compound was assayed against Cdk9/cyclinT1 (Homo sapiens, UniProt P50750) (assay: Cdk9/cyclinT1 IMAP Protocol (fluorescence polarization kinase assay)). Conditions: Cdk9_cyclinT1_IC50, Table V; generated using one of the two Cdk9/cyclinT1 assays (IMAP or Alpha Screen), not stated which; ATP 6 uM.
Cdk9/cyclinT1, sequence (P50750 whole entry): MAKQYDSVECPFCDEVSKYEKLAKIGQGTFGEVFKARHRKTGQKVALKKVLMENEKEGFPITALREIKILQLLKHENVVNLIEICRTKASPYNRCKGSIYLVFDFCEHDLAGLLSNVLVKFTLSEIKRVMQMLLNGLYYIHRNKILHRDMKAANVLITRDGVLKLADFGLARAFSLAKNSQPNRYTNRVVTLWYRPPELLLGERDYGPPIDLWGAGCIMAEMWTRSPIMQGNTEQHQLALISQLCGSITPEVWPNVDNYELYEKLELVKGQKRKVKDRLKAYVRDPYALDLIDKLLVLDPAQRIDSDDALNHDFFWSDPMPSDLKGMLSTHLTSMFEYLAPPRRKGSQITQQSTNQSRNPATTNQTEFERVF
Cdk9/cyclinT1, sequence (O60563 whole entry partner): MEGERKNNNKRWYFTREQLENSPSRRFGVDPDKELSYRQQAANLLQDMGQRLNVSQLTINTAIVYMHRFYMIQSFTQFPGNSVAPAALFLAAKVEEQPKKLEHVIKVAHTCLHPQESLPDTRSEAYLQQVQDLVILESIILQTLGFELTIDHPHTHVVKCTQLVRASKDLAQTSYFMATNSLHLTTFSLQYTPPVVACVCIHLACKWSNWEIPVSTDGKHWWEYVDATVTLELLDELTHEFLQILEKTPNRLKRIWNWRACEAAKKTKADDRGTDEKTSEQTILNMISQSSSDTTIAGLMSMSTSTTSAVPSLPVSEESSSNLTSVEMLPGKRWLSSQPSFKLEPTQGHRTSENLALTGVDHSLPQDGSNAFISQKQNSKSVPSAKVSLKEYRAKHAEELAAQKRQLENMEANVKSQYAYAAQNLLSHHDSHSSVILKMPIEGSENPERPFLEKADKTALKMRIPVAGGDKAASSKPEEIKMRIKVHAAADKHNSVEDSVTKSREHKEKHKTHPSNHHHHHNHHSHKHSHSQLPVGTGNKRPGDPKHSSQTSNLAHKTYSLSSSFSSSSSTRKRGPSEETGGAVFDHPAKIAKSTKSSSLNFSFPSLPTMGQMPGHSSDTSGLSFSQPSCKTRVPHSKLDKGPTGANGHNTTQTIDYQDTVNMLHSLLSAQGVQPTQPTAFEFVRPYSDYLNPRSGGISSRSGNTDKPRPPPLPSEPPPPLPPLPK

SMILES	pIC50
C[C@@H]1CC(CNc2cccc(-c3cc(NC(=O)[C@H]4CNCCO4)ncc3Cl)n2)C[C@H](C)O1 (stereo partly drawn) [Example 169, (R)-Morpholine-2-carboxylic acid {5′-chloro-6-[((2R,6S)-2,6-dimethyl-tetrahydro-pyran-4-ylmethyl)-amino]-[2,4′]bipyridinyl-2′-yl}-amide]	7.80
O=C(Nc1cc(-c2ccc(C(F)(F)F)c(NCC3CCOCC3)n2)c(Cl)cn1)[C@@H]1CCCNC1 [Example 217, (R)-Piperidine-3-carboxylic acid {5′-chloro-6-[(tetrahydro-pyran-4-ylmethyl)-amino]-5-trifluoromethyl-[2,4′]bipyridinyl-2′-yl}-amide]	8.40
O=C(Nc1cc(-c2cccc(NCC3CCOCC3)n2)c(Cl)cn1)C1CNCC(F)C1 (centres unmarked) [Example 168, 5-Fluoro-piperidine-3-carboxylic acid {5′-chloro-6-[(tetrahydro-pyran-4-ylmethyl)-amino]-[2,4′]bipyridinyl-2′-yl}-amide]	8.22
CC1(C)COCC(CNc2cccc(-c3cc(NC(=O)[C@@H]4CCCNC4)ncc3Cl)n2)O1 (stereo partly drawn) [Example 219, (R)-Piperidine-3-carboxylic acid {5′-chloro-6-[(6,6-dimethyl-[1,4]dioxan-2-ylmethyl)-amino]-[2,4′]bipyridinyl-2′-yl}-amide]	9.00
CC(C)C(=O)Nc1cc(-c2cccc(NCC3CCOCC3)n2)c(Cl)cn1 [Example 70, N-{5′-Chloro-6-[(tetrahydro-pyran-4-ylmethyl)-amino]-[2,4]bipyridinyl-2′-yl}-isobutyramide]	7.96
C[C@H]1CC[C@H](C(=O)Nc2cc(-c3cccc(NC[C@@H]4CCOC(C)(C)C4)n3)c(Cl)cn2)CN1 (single isomer, unassigned) [Example 243]	8.70
O=C(Nc1cc(-c2cccc(NCC3CCOCC3)n2)c(Cl)cn1)c1cccnc1 [Example 71, N-{5′-Chloro-6-[(tetrahydro-pyran-4-ylmethyl)-amino]-[2,4′]bipyridinyl-2′-yl}-nicotinamide]	7.25
O=C(Nc1cc(-c2nc(NCC3CCOCC3)ccc2Cl)c(Cl)cn1)[C@H]1CCCNC1 [Example 98, (S)-Piperidine-3-carboxylic acid {3,5′-dichloro-6-[(tetrahydro-pyran-4-ylmethyl)-amino]-[2,4′]bipyridinyl-2′-yl}-amide]	7.85
O=C1CCC(C(=O)Nc2cc(-c3cccc(NCC4CCOCC4)n3)c(Cl)cn2)CN1 (centres unmarked) [Example 61, 6-Oxo-piperidine-3-carboxylic acid {5′-chloro-6-[(tetrahydro-pyran-4-ylmethyl)-amino]-[2,4′]bipyridinyl-2′-yl}-amide]	> 8.10
O=C(Nc1cc(-c2cccc(NCC3CCOCC3)n2)c(Cl)cn1)[C@H]1CNC[C@H](C(F)(F)F)C1 (single isomer, unassigned) [Example 162]	8.00
CC1(C)CC(CNc2cccc(-c3cc(NC(=O)C4CNCCOC4)ncc3Cl)n2)CCO1 (centres unmarked) [Example 202, [1,4]Oxazepane-6-carboxylic acid {5′-chloro-6-[(2,2-dimethyl-tetrahydro-pyran-4-ylmethyl)-amino]-[2,4′]bipyridinyl-2′-yl}-amide]	8.70
CCN1CCCC(C(=O)Nc2cc(-c3cccc(NCC4CCOCC4)n3)c(Cl)cn2)C1 (centres unmarked) [Example 9, 1-Ethyl-piperidine-3-carboxylic acid {5′-chloro-6-[(tetrahydro-pyran-4-ylmethyl)-amino]-[2,4′]bipyridinyl-2′-yl}-amide]	6.84
CO[C@H]1CNC[C@@H](C(=O)Nc2cc(-c3cccc(NCC4CCOCC4)n3)c(Cl)cn2)C1 (single isomer, unassigned) [Example 212]	6.77
CC1(C)CCC(C(=O)Nc2cc(-c3ccc(F)c(NCC4CCOCC4)n3)c(Cl)cn2)CN1 (centres unmarked) [Example 210, 6,6-Dimethyl-piperidine-3-carboxylic acid {5′-chloro-5-fluoro-6-[(tetrahydro-pyran-4-ylmethyl)-amino]-[2,4′]bipyridinyl-2′-yl}-amide]	9.00
O=C(Nc1cc(-c2cccc(NCC3CCOCC3)n2)c(Cl)cn1)C1CCOCC1 [Example 63, Tetrahydro-pyran-4-carboxylic acid {5′-chloro-6-[(tetrahydro-pyran-4-ylmethyl)-amino]-[2,4′]bipyridinyl-2′-yl}-amide]	7.57
O=C(Nc1cc(-c2cccc(NCc3cc(F)cc(F)c3)n2)c(Cl)cn1)[C@@H]1CCCNC1 [Example 80, (R)-Piperidine-3-carboxylic acid [5′-chloro-6-(3,5-difluoro-benzylamino)-[2,4′]bipyridinyl-2′-yl]-amide]	> 8.10
CCS(=O)(=O)N1CCC[C@H](C(=O)Nc2cc(-c3cccc(NCC4CCOCC4)n3)c(Cl)cn2)C1 [Example 92, (S)-1-Ethanesulfonyl-piperidine-3-carboxylic acid {5′-chloro-6-[(tetrahydro-pyran-4-ylmethyl)-amino]-[2,4′]bipyridinyl-2′-yl}-amide]	> 8.10
CC1(C(=O)Nc2cc(-c3cccc(NCC4CCOCC4)n3)c(Cl)cn2)CNCCO1 (centres unmarked) [Example 145, 2-Methyl-morpholine-2-carboxylic acid {5′-chloro-6-[(tetrahydro-pyran-4-ylmethyl)-amino]-[2,4′]bipyridinyl-2′-yl}-amide]	6.11

More lines, now with the values ahead:

pIC50	SMILES
> 8.10	C[C@H]1CC[C@@H](C(=O)Nc2cc(-c3cccc(NCC4CCOCC4)n3)c(Cl)cn2)CN1 (single isomer, unassigned) [Example 141]
8.52	C[C@@H]1CC(CNc2cccc(-c3cc(NC(=O)C4CNCCOC4)ncc3Cl)n2)C[C@H](C)O1 (stereo partly drawn) [Example 203, [1,4]Oxazepane-6-carboxylic acid {5′-chloro-6-[((2R,6S)-2,6-dimethyl-tetrahydro-pyran-4-ylmethyl)-amino]-[2,4′]bipyridinyl-2′-yl}-amide]
8.15	CC[C@H]1CC[C@@H](C(=O)Nc2cc(-c3cccc(NCC4CCOCC4)n3)c(Cl)cn2)CN1 [Example 247, (3R,6S)-6-Ethyl-piperidine-3-carboxylic acid {5′-chloro-6-[(tetrahydro-pyran-4-ylmethyl)-amino]-[2,4′]bipyridinyl-2′-yl}-amide]
> 8.10	O=C(Nc1cc(-c2cccc(NCC3CCCCC3)n2)c(Cl)cn1)[C@@H]1CCCNC1 [Example 17, (R)-Piperidine-3-carboxylic acid [5′-chloro-6-(cyclohexylmethyl-amino)-[2,4′]bipyridinyl-2′-yl]-amide]
9.00	C[C@@H]1CC[C@@H](C(=O)Nc2cc(-c3cccc(NC[C@@H]4CCOC(C)(C)C4)n3)c(Cl)cn2)CN1 (single isomer, unassigned) [Example 242]
> 8.10	O=C(Nc1cc(-c2cccc(NCc3ccncc3)n2)c(Cl)cn1)[C@@H]1CCCNC1 [Example 54, (R)-Piperidine-3-carboxylic acid {5′-chloro-6-[(pyridin-4-ylmethyl)-amino]-[2,4′]bipyridinyl-2′-yl}-amide]
7.77	O=C(Nc1cc(-c2cccc(NCc3cccc(F)c3)n2)c(Cl)cn1)[C@H]1CCCNC1 [Example 4, (S)-Piperidine-3-carboxylic acid [5′-chloro-6-(3-fluoro-benzylamino)-[2,4′]bipyridinyl-2′-yl]-amide]
8.40	C[C@H]1CC[C@H](C(=O)Nc2cc(-c3ccc(F)c(NCC4CCOCC4)n3)c(Cl)cn2)CN1C (single isomer, unassigned) [Example 197]
6.20	CC(=O)N1CCC[C@@H](C(=O)Nc2cc(-c3cccc(NCC4CCOCC4)n3)c(Cl)cn2)C1 [Example 82, (R)-1-acetyl-piperidine-3-carboxylic acid {5′-chloro-6-[(tetrahydro-pyran-4-ylmethyl)-amino]-[2,4′]bipyridinyl-2′-yl}-amide]
> 8.10	COC(=O)N1CCC[C@H](C(=O)Nc2cc(-c3cccc(NCC4CCS(=O)(=O)CC4)n3)c(Cl)cn2)C1 [Example 152, (S)-3-{5′-Chloro-6-[(1′,1′-dioxo-hexahydro-1-thiopyran-4-ylmethyl)-amino]-[2,4′]bipyridinyl-2′-ylcarbamoyl}-piperidine-1-carboxylic acid methyl ester]
8.40	O=C(Nc1cc(-c2nc(NCC3CCOCC3)ccc2F)c(Cl)cn1)C1CNCCOC1 (single isomer, unassigned) [Example 223]
8.52	O=C(Nc1cc(-c2cccc(NCC3CCOCC3)n2)c(Cl)cn1)C1CNCCOC1 (centres unmarked) [Example 187, [1,4]Oxazepane-6-carboxylic acid {5′-chloro-6-[(tetrahydro-pyran-4-ylmethyl)-amino]-[2,4′]bipyridinyl-2′-yl}-amide]
9.00	O=C(Nc1cc(-c2nc(NCC3CCOCC3)ccc2Cl)c(Cl)cn1)C1CNCCOC1 (centres unmarked) [Example 191, [1,4]Oxazepane-6-carboxylic acid {3,5′-dichloro-6-[(tetrahydro-pyran-4-ylmethyl)-amino]-[2,4′]bipyridinyl-2′-yl}-amide]
> 8.10	CC(=O)N1CCC(CNc2cccc(-c3cc(NC(=O)[C@@H]4CCCNC4)ncc3Cl)n2)CC1 [Example 30, (R)-Piperidine-3-carboxylic acid {6-[(1-acetyl-piperidin-4-ylmethyl)-amino]-5′-chloro-[2,4′]bipyridinyl-2′-yl}-amide]
6.79	O=C(Nc1cc(-c2cccc(NCC3CCOCC3)n2)c(Cl)cn1)[C@@H]1CCCN(CCF)C1 [Example 10, (R)-1-(2-Fluoro-ethyl)-piperidine-3-carboxylic acid {5′-chloro-6-[(tetrahydro-pyran-4-ylmethyl)-amino]-[2,4′]bipyridinyl-2′-yl}-amide]

Same assay, conditions: Cdk9_cyclinT1_IC50, generated using one of the two Cdk9/cyclinT1 assays (IMAP or Alpha Screen), not specified per value; ATP 6 uM

pIC50	SMILES
6.62	COc1cncc(-c2cc(NC(=O)[C@@H]3CCCNC3)ncc2Cl)c1 [Example 307, (R)-Piperidine-3-carboxylic acid (5′-chloro-5-methoxy-[3,4′]bipyridinyl-2′-yl)-amide]
> 8.10	O=C(Nc1cc(-c2cncc(NCC3CCOCC3)c2)c(Cl)cn1)[C@@H]1CCCNC1 [Example 301, (R)-Piperidine-3-carboxylic acid {5′-chloro-5-[(tetrahydro-pyran-4-ylmethyl)-amino]-[3,4′]bipyridinyl-2′-yl}-amide]
